Results from a melting point compilation (Tetko et al.; mined from patent text by program, amines drawn as free bases though some values may be those of a salt).

melting point [°C] | Structure (SMILES)
224 to 225 | COc1ccc(CCC(=O)NNC(=O)c2ccc3[nH]ncc3c2)cc1C(F)(F)F
289 | COc1ccc(C(=O)Nn2c(=O)[nH]c3ccccc3c2=O)cc1
190 to 192 | CCn1ncc2c(O)c3c(nc21)C(=O)c1ccccc1CC3
140 to 145 | O=C(c1cc(N2CCCC(F)(F)C2)ccn1)N(O)Cc1ccccc1
60 to 63 | COC(=O)COc1cccc(-c2ccc(Cl)cc2)n1
211 to 214 | Cn1c(COc2ccc(CC3SC(=O)NC3=O)cc2)nc2ccc(Oc3ccc(NC(=O)Nc4cccc5ccccc45)cc3)cc21 (stereo not drawn)
126 to 130 | O=Cc1ccc(OCc2cn3c(Cl)cccc3n2)cc1
207 to 208 | CCCCc1nn2c(C)c(-c3ccccc3)nc2n1Cc1ccc(-c2ccccc2-c2nnn[nH]2)cc1
182 to 184 | COc1cc2c(Nc3ccc(Oc4cccnc4)cc3)c(C#N)cnc2cc1OCC1CCN(C)CC1
206 to 207 | O=C(N[C@H](Cc1ccc(Cl)c(OC(F)(F)C(F)F)c1)[C@@H](O)c1ccc(F)cc1)c1ccc(F)c2ccccc12 (racemic)
130 to 132 | CN(Cc1cc2c(=O)c(C(=O)NCc3ccc(Cl)cc3)cn(C)c2o1)CC(O)c1ccccn1 (stereo not drawn)
139 to 141 | O=C(Nc1ccccc1)c1cccc([N+](=O)[O-])c1C(=O)Nc1ccccc1
115 to 117 | CC[C@H](CS[C@@H](CCc1ccccc1C(C)(C)O)c1cccc(C=Cc2ccc3ccc(Cl)cc3n2)c1)C(=O)O
288 to 292 | COc1ccc(Cn2ncc3nc(O)nc(O)c32)cc1
153 to 155 | COC(=O)NC1=NCC(c2ccc(F)cc2)N1C (stereo not drawn)
186 to 187 | C1=CNC(C(c2ccccc2)c2ccccc2)=C(NCc2ccccc2)C=C1
148 to 150 | O=C(Nc1ccccc1)C1=C(c2ccccc2)C(c2ccccc2)OC1=O (stereo not drawn)

melting point [°C] | Structure (SMILES)
134 to 135 | CCOC(=O)c1cn(C)nc1OCc1ccc(OCc2nc(-c3ccccc3)oc2C)c(OC)c1
191 | COC(=O)c1c(C(=O)O)n(-c2ccc(OC(C)C)cc2)c2ccc(Oc3ccc(C(F)(F)F)cc3)cc12
145 to 147 | CC(=O)NC1(c2ccc(CN3CCN(c4ccccn4)CC3)cc2)CC1
220 to 222 | CCOc1nc2ccccc2n2cc(C(=O)O)nc12
192 to 193 | COc1ccc(COc2ccc(C(=O)Nc3ccc4cc(CN5CCCC5)cnc4c3C)cc2)cc1
157 | O=C(CC1CCN(Cc2ccccc2)CC1)Nc1cncnc1NCc1ccc(F)cc1
190 to 196 | COC(=O)c1cccc2[nH]c3cc4ccccc4c(OC)c3c12
250 to 252 | Cc1nc(-n2ccc(O)cc2=O)sc1C(=O)NCc1cccc(F)c1
255 to 257 | O=c1ncn(Cc2ccc(Cl)cc2)c2cc(-c3ccc(OCc4cccnc4)cc3)sc12
193 to 197 | CSc1nn2c(Cl)cc(Cl)nc2c1S(=O)(=O)c1ccccc1
148 to 150 | CC(=O)N(C(C)=O)c1ccc(C=Cc2ccc3ccccc3n2)cc1
126 to 128 | O=S(=O)(Nc1cccc(Cl)c1F)c1cc(S(=O)(=O)Nc2cccc(Cl)c2F)c2cc(O)ccc2c1
127 to 128 | N#CCON=C(CCN1CCN(c2ccccn2)CC1)c1ccccc1
177 to 178 | O=C(NC1=NN(c2ccc(Cl)c(Cl)c2)CC1)c1ccc(Cl)cc1
118 to 119 | N=C(Nc1ccccc1CN1CCOCC1)N1CCOCC1
162 to 163 | Cc1nnc(-c2cc3c(-c4ccccc4Cl)coc3cn2)o1
147 to 150 | CCOC(Cc1ccc(OCC=C2c3ccccc3CCc3ccccc32)cc1)C(=O)O (stereo not drawn)

The next lines start with the compound.

Structure (SMILES) | melting point [°C]
COc1ccc2[nH]c(S(=O)Cc3ncc(F)c(N4CCOCC4)c3C)nc2c1 (stereo not drawn) | 158 to 160
CCOC(=O)c1cn(C2CC2)c2nc(N3CCC(NCC(C)=O)C3)c(F)cc2c1=O (stereo not drawn) | 203 to 204
O=C(OCC(F)(F)C(F)C(F)(F)F)C(F)CF (stereo not drawn) | 84 to 86
CN1CCN(S(=O)(=O)CCCOc2ccc3ncnn3n2)CC1 | 140 to 141
CC(=O)C1=CCC2C3CCC4CC(O)CCC4(C)C3=CCC12C (stereo not drawn) | 188 to 190
Cc1nc(C)c(Cl)c(NCc2nccc(SCCCCSCCn3c([N+](=O)[O-])cnc3C)c2C)n1 | 142 to 144
C=CC1(O)CCC2(C)C(CCC3C2CCC2(C)C(OC)CCC32)C1 (stereo not drawn) | 104 to 111
CN1CC(Cn2cncn2)CC2c3cccc4[nH]cc(c34)CC21 (stereo not drawn) | 245 to 253
OC1CSC(Oc2cccnc2-c2cccs2)C(O)C1O (stereo not drawn) | 130
O=C(NC1CC1)c1ccc(N2CCNCC2)c(F)c1 | 141 to 143
CCOC(=O)c1c(COc2cccc(C)n2)nc2cc(OC)c(OC)cc2c1-c1ccc(OC)c(OC)c1 | 173 to 174
COC(=O)Nc1ccc(CN2OCC(C)(C)C2=O)c(Cl)c1 | 165 to 167
C=C1CCC(c2ccc(N3CC(COC)OC3=O)cc2)CC1 (racemic) | 63 to 65
OCc1conc1-c1ccc(F)c(Cl)c1 | 87 to 88
CCC12CCC3C4CCC(=O)C=C4CCC3C1CCC2(O)C(C)O (stereo not drawn) | 159 to 164
CC1(C)Cc2cc(Cl)ccc2C=[N+]1[O-] | 64.5 to 66.5
CC(=O)OC1CSC(Oc2ccc(C#N)nc2C)C(OC(C)=O)C1OC(C)=O (stereo not drawn) | 128 to 131

Structure (SMILES) | melting point [°C]
COc1cc(-c2nc(N)sc2SCC2CCCCC2)c(OC)cc1C | 111 to 112
Cn1c(C(F)(F)F)nn(-c2cc(NS(C)(=O)=O)c(C#N)cc2F)c1=O | 67
O=[N+]([O-])c1cccc(C(Cl)=NN=C(Cl)c2ccc(C(F)(F)F)cc2)c1 | 78 to 80
CCc1ccc2nc(OC)nc(N)c2c1 | 168 to 170
CCOC(=O)[C@H](CNC(=O)OC(C)(C)C)NS(=O)(=O)N(C)C | 65 to 67
COc1ccc(-c2ccc3c(c2)S(=O)(=O)NC(C2CCCCC2)N3)c(OC)c1 (stereo not drawn) | 208 to 213
CCCNC(=N)NC(=O)NCc1ccccn1 | 195 to 197
CCOC(=O)c1c(C)cc2c(=O)n(-c3cccc(Cl)c3)c(C)nc2c1C | 150 to 152
Cc1nc(-c2ccc(-c3cscn3)c(C)c2)c(-c2ccc(S(C)(=O)=O)c(F)c2)o1 | 177 to 178
Cc1nn(-c2ccc(C#N)c(Cl)c2)c(C)c1Cc1ccc(C(=O)N2CCC(O)CC2)cc1 | 153 to 154
CCCCCCCN(CCCCCSc1ncnc2[nH]ncc12)C(=O)NC(C)C | 81 to 83
CN(C)c1ccc(NC(=O)N(CC2CCC(CN(C(=O)Nc3ccc(N(C)C)cc3)C3CC4CCC3C4)CC2)C2CC3CCC2C3)cc1 (stereo not drawn) | 188 to 191
Cc1cc2cc(P(=O)(O)O)c(=O)[nH]c2cc1C | > 300
COc1c(Cl)ccc(-c2cc(N)c(Cl)c(C(=O)N(C)OC)n2)c1F | 159 to 162
CCc1c(CN(C)S(=O)(=O)c2cccc(Cl)c2)nn(-c2ccc(Cl)cc2Cl)c1-c1ccc(Br)cc1 | 78
CCCCCCCCc1ccc(NC2=NCCS2)cc1 | 82 to 84
Nc1nc(N)c(-c2cc(Cl)cc(Cl)c2Cl)nc1CO | 185 to 186
